The source of these data is patent US11780845B2 (Relay Therapeutics, Inc., priority 2019, dated 2023).

Molecules are shown by their SMILES.

The test system of one experiment is SNU16 cells. Briefly: SNU16 Cancer Cell Line Proliferation Assay. The format is cell-based. The note with it: Homo sapiens; SNU-16 cells. The method, boiled down: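 Proliferation read-out: CellTiter Glo chemiluminescence after 96 h compound exposure. Test compounds, serially diluted 3-fold over 11 points from a 10 mM DMSO stock, were added to SNU16 cells plated 24 h earlier at 37 degrees.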

For a further experiment, the target named is FGFR2 (Homo sapiens (Human), UniProt P21802). In words: FGFR2 Biochemical Caliper Assay. As to the method: Compounds of the present invention were also tested in a FGFR2 Biochemical Caliper Assay. Compounds were prepared in 10 mM DMSO solution and serially diluted into 11 concentrations by 3-fold dilution. […] 5 uL of ATP solution (100 uM) was added to start the reaction and the plate was incubated for 90 minutes, then 70 uL of stopping buffer (0.5M EDTA) was added to terminate the reaction. Each well was analyzed using EZ reader.
FGFR2, sequence (P21802 22-821): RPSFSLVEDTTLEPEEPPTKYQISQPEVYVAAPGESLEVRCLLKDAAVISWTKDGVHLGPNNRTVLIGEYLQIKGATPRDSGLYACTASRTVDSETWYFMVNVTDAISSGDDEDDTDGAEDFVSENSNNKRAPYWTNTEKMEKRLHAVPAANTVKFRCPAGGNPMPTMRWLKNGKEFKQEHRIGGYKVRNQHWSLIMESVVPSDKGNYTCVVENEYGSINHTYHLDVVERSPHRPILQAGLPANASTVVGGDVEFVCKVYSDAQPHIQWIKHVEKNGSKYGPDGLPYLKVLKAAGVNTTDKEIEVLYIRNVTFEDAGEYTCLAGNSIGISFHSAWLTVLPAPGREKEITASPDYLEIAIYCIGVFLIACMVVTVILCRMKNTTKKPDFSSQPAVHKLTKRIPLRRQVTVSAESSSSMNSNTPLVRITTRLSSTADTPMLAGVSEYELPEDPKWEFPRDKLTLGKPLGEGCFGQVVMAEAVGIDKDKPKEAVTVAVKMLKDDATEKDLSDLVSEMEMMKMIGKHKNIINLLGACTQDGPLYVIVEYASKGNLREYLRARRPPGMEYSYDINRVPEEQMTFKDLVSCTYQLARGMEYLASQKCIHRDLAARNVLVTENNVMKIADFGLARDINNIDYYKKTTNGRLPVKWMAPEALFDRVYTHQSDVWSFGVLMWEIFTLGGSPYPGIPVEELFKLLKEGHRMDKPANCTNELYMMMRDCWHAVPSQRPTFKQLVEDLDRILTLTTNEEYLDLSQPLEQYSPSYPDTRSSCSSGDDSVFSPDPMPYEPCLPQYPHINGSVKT

By IC50 is commonly meant the concentration that gives 50% inhibition. As to `C=CC(=O)N1CCC(c2c(-c3ccc(Oc4cccc(C)n4)cc3)c3c(N)ncnc3n2C)CC1` [Example 647], the IC50 in the experiment with SNU16 cells is no more than 100 nM; against FGFR2, less than 100 nM.
The like results for `C=CS(=O)(=O)N1CCC(n2cc(-c3c(-c4ccc(Oc5cccc(C)n5)cc4)c4c(N)ncnc4n3C)cn2)CC1` [Example 648] were, in that order, 100 to 250 nM and less than 100 nM.
The like results for `C/C=C/C(=O)N1CCC(n2cc(-c3c(-c4ccc(Oc5cccc(C)n5)cc4)c4c(N)ncnc4n3C)cn2)CC1` [Example 649] were, in that order, 250 to 1000 nM and 100 to 250 nM.
`C=CC(=O)N1CCC(n2cc(-c3c(-c4ccc(Oc5cccc(OC)n5)cc4)c4c(N)ncnc4n3C)cn2)CC1` [Example 650]: the results for the IC50 in the experiment on SNU16 cells and at FGFR2 were no more than 100 nM and less than 100 nM, respectively.
In the same order, the values of `C=CC(=O)N1CCC(c2nnc(-c3c(-c4ccc(Oc5cccc(C)n5)cc4)c4c(N)ncnc4n3C)o2)CC1` [Example 651] are no more than 100 nM and 100 to 250 nM.
In the same order, the values of `C=C(C)C(=O)N1CCC(n2cc(-c3c(-c4ccc(Oc5ccccc5)cc4)c4c(N)ncnc4n3C)cn2)CC1` [Example 652] are 1000 to 100000 nM and 100 to 250 nM.
Consider `C=C(C)C(=O)N1CCC(n2cc(-c3c(-c4ccc(OC)cc4)c4c(N)ncnc4n3C)cn2)CC1` [Example 653], for which the IC50 was in the range of 1000 to 100000 nM in the experiment on SNU16 cells and 250 to 1000 nM on FGFR2.
In the same order, the values of `C=CC(=O)N1CC=C(c2c(-c3ccc(OC)cc3)c3c(N)ncnc3n2C)CC1` [Example 654] are no more than 100 nM and less than 100 nM.
For the molecule `C/C(=C\CN(C)C)C(=O)N1CCC(n2cc(-c3c(-c4ccc(Oc5cccc(C)n5)cc4)c4c(N)ncnc4n3C)cn2)CC1` [Example 655], the IC50 in the experiment with SNU16 cells fell in the range of 1000 to 100000 nM; against FGFR2, 250 to 1000 nM.
In the same order, the values of `C=CC(=O)N1CC=C(c2c(-c3ccc(Oc4cccc(C)n4)cc3)c3c(N)ncnc3n2C)CC1` [Example 656] are no more than 100 nM and less than 100 nM.
The like results for `C=CC(=O)N1CCC=C(c2c(-c3ccc(Oc4cccc(C)n4)c(OC)c3)c3c(N)ncnc3n2C)C1` [Example 657] were, in that order, 1000 to 100000 nM and 1000 to 100000 nM.
In the same order, the values of `C=CC(=O)N1CCC(c2nc(-c3c(-c4ccc(Oc5cccc(C)n5)cc4)c4c(N)ncnc4n3C)no2)CC1` [Example 660] are no more than 100 nM and less than 100 nM.
Regarding `C=CC(=O)N1CCCC(c2c(-c3ccc(Oc4cccc(C)n4)c(OC)c3)c3c(N)ncnc3n2C)C1` (centres unmarked) [Example 661], the IC50 with SNU16 cells and on FGFR2 was 1000 to 100000 nM each time.
Turning to `C=CC(=O)NC1CCC(c2c(-c3ccc(Oc4cccc(C)n4)cc3)c3c(N)ncnc3n2C)CC1` (centres unmarked) [Example 662], the values for the IC50 with SNU16 cells and at FGFR2 were 250 to 1000 nM and 100 to 250 nM, respectively.
The like results for `C=CC(=O)N1CCCC(c2c(-c3ccc(Oc4cccc(C)n4)cc3)c3c(N)ncnc3n2C)C1` (centres unmarked) [Example 663] were, in that order, 250 to 1000 nM and 250 to 1000 nM.
For `C=CC(=O)N1CCC(n2cc(-c3c(-c4ccc(Oc5ccccn5)c(OC)c4)c4c(N)ncnc4n3C)cn2)CC1C` (centres unmarked) [Example 664], the IC50 in the experiment with SNU16 cells and on FGFR2 was 100 to 250 nM throughout.
Take `C=CC(=O)N1CCC=C(c2c(-c3ccc(Oc4cccc(C)n4)cc3)c3c(N)ncnc3n2C)C1` [Example 665]: the figures for the IC50 with SNU16 cells and on FGFR2 were 250 to 1000 nM and 100 to 250 nM, respectively.
The like results for `C=CC(=O)N1CC=C(c2c(-c3ccc(Oc4cccc(C)n4)cc3)c3c(N)ncnc3n2C)C1` [Example 666] were, in that order, no more than 100 nM and less than 100 nM.
In the case of `C=CC(=O)N1CC=C(c2c(-c3ccc(Oc4cccc(C)n4)c(OC)c3)c3c(N)ncnc3n2C)C1` [Example 667], the IC50 in the experiment with SNU16 cells and against FGFR2 was 100 to 250 nM throughout.
Regarding `C/C=C(\C#N)C(=O)N1CCC(n2cc(-c3c(-c4ccc(Oc5cccc(C)n5)cc4)c4c(N)ncnc4n3C)cn2)CC1` [Example 668], the results for the IC50 with SNU16 cells and against FGFR2 were 1000 to 100000 nM and less than 100 nM, respectively.
The like results for `C=CC(=O)N1CCC(n2cc(-c3c(-c4ccc(Oc5ccccn5)c(OC)c4)c4c(N)ncnc4n3C)cn2)CC1` [Example 669] were, in that order, 250 to 1000 nM and 250 to 1000 nM.
In the same order, the values of `C=CC(=O)N1CCC(c2c(-c3ccc(Oc4cccc(C)n4)c(OC)c3)c3c(N)ncnc3n2C)C1` (centres unmarked) [Example 670] are 250 to 1000 nM and 250 to 1000 nM.
The like results for `C/C(=C\CN(C)C)C(=O)N1CC(n2cc(-c3c(-c4ccc(Oc5cccc(C)n5)cc4)c4c(N)ncnc4n3C)cn2)C1` [Example 671] were, in that order, 1000 to 100000 nM and 250 to 1000 nM.
Take `C=CC(=O)N1CCC(n2cc(-c3c(-c4ccc(Oc5cccc(C)c5)c(OC)c4)c4c(N)ncnc4n3C)cn2)CC1` [Example 672]: the IC50 with SNU16 cells lay within 250 to 1000 nM; against FGFR2, 100 to 250 nM.
Consider `C=CC(=O)N1CCC(n2ncc(-c3c(-c4ccc(Oc5cccc(C)n5)c(OC)c4)c4c(N)ncnc4n3C)c2C)CC1` [Example 673], for which the IC50 with SNU16 cells is no more than 100 nM; at FGFR2 it was less than 100 nM.
In the same order, the values of `C=CC(=O)N1CC=C(c2c(-c3ccc(Oc4ncccn4)c(OC)c3)c3c(N)ncnc3n2C)CC1` [Example 674] are no more than 100 nM and less than 100 nM.
The like results for `C=CC(=O)N1CCC(c2c(-c3ccc(Oc4ccccn4)c(OC)c3)c3c(N)ncnc3n2C)C1` (centres unmarked) [Example 675] were, in that order, 1000 to 100000 nM and 250 to 1000 nM.
In the same order, the values of `C=CC(=O)N1CC=C(c2c(-c3ccc(Oc4ccccn4)c(OC)c3)c3c(N)ncnc3n2C)CC1` [Example 676] are no more than 100 nM and less than 100 nM.
In the case of `C=CC(=O)N1CC=C(c2c(-c3ccc(Oc4cc(C)ccn4)c(OC)c3)c3c(N)ncnc3n2C)CC1` [Example 677], the IC50 in the experiment on SNU16 cells is no more than 100 nM; against FGFR2, less than 100 nM.
For the molecule `C=CC(=O)N1CC=C(c2c(-c3ccc(Oc4cncc(C)c4)c(OC)c3)c3c(N)ncnc3n2C)CC1` [Example 678], the IC50 was 100 to 250 nM in the experiment on SNU16 cells and less than 100 nM at FGFR2.
As for `C=CC(=O)N1CC=C(c2c(-c3ccc(Oc4ncccn4)cc3)c3c(N)ncnc3n2C)CC1` [Example 680], the values for the IC50 in the experiment on SNU16 cells and against FGFR2 were no more than 100 nM and less than 100 nM, respectively.
The like results for `C=CC(=O)N1CC=C(c2c(-c3ccc(Oc4ccccn4)cc3)c3c(N)ncnc3n2C)CC1` [Example 681] were, in that order, no more than 100 nM and less than 100 nM.
Take `C=CC(=O)N1CCC(c2c(-c3ccc(Oc4ncccn4)cc3)c3c(N)ncnc3n2C)C1` (centres unmarked) [Example 682]: the IC50 with SNU16 cells is no more than 100 nM; against FGFR2, 100 to 250 nM.
The like results for `C=CC(=O)N1CC=C(c2c(-c3ccc(Oc4ccc(C)cn4)c(OC)c3)c3c(N)ncnc3n2C)CC1` [Example 683] were, in that order, no more than 100 nM and less than 100 nM.
Turning to `C=CC(=O)N1CCC(n2nc(-c3c(-c4ccc(Oc5cccc(C)n5)c(OC)c4)c4c(N)ncnc4n3C)cc2C)CC1` [Example 684], the IC50 with SNU16 cells and against FGFR2 was 1000 to 100000 nM each time.
On to `C=CC(=O)N1CCC(c2c(-c3ccc(Oc4ccc(C)nc4)c(OC)c3)c3c(N)ncnc3n2C)C1` (centres unmarked) [Example 685], for which the IC50 in the experiment with SNU16 cells and against FGFR2 was 1000 to 100000 nM in each case.
As to `C=CC(=O)N1CC=C(c2c(-c3ccc(Oc4ncccn4)cc3)c3c(N)ncnc3n2C)C1` [Example 686], the IC50 was no more than 100 nM with SNU16 cells and less than 100 nM against FGFR2.
